This note sets out measurements from US20230022803A1, “NOVEL CRYSTALLINE FORM OF GPR40 AGONIST” (ILDONG Pharmaceutical Co., Ltd., priority 2021, published 2023).

Converted amounts (≈) assume the structure as drawn. Read-outs that look alike come from different tables or passages of the source. Some results are limits rather than exact numbers.

The solubility is how much of the substance goes into solution per volume.

One data set deals with GPR40 (Homo sapiens, UniProt O14842). The data set is described as follows: Cell-based aequorin assay (agonistic activity). Conditions: method and reference agonist of U.S. 2020/0223833. As for the experimental part: The agonistic activity of the crystalline form of Compound 1 was measured by using the method described in U.S. Patent Application Publication No. 2020/0223833, which is incorporated herein by reference. The agonistic activity of the crystalline form of Compound 1 was higher than 70% of the activity of the reference agonist used in U.S. Patent Application Publication No. 2020/0223833, which falls within the category of the publication.
Chain of GPR40 (O14842 whole entry, species assumed): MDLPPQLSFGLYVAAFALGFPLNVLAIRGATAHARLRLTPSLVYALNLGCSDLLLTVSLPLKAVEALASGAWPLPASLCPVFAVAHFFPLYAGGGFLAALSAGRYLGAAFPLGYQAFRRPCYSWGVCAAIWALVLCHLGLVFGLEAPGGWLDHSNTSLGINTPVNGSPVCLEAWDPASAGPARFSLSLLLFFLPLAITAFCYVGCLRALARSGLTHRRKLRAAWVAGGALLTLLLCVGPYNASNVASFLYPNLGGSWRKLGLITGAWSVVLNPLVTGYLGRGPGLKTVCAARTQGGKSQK

Data set [1] in a line: Visual solubility analysis in 13 solvents. The data set is classed as physicochemical. The following applies: organic solvent or mixture, thermodynamic from solid, read-out: Solubility (S). As for the experimental part:
The solubility of the crystalline form Compound 1 was visually determined in 13 solvents. 5.0±0.2mg of the crystalline form Compound 1 was stirred at 20° C. with increasing volumes of solvents until a clear solution was visually observed.

Data set [2] is described as follows: Gravimetric vapor sorption (GVS) analysis. It counts as physicochemical. The text has this:
The GVS analysis was made using an IGA Sorp instrument by Hiden Analytical. The instrumental parameters are listed below.
FIG. 6 illustrates the GVS analysis result.

A short description of data set [3]: Thermal analysis (TGA and DSC). It counts as physicochemical. The text has this:
The crystalline form Compound 1 prepared according to Example 1 was characterized by thermal gravimetric analysis (TGA) and differential scanning calorimetry (DSC). The TGA analysis was made by a TA Q5000 instrument. The DSC analysis was made by a TA Q2000 MDSC instrument. The instrumental parameters used are listed below.
FIGS. 2A and 2B show the results of the TGA and DSC analyses, respectively.

As for `CC#C[C@@H](CC(=O)O)c1ccc(O[C@@H]2CCc3c(-c4ccc(O[C@@H]5CCOC5)nc4)ccc(F)c32)cc1` [Crystalline Form Compound 1, (S)-3-(4-(((R)-7-Fluoro-4-(6-(((R)-tetrahydrofuran-3-yl)oxy)pyridin-3-yl)-2,3-dihydro-1H-inden-1-yl)oxy)phenyl)hex-4-ynoic acid], the “agonistic activity relative to the activity of the reference agonist” value at GPR40 is reported as “higher than 70%”. The solubility was more than 100000 µg/mL in data set [1] (2-Butanone, 20° C.); 5000 to 6000 µg/mL (≈ 9.97 to 12 mM) in data set [1] (2-Propanol, 20° C.); more than 100000 µg/mL in data set [1] (Acetone, 20° C.); more than 100000 µg/mL in data set [1] (Acetone/water 90:10, 20° C.); 6000 to 8000 µg/mL (≈ 12 to 16 mM) in data set [1] (Acetonitrile, 20° C.); more than 100000 µg/mL in data set [1] (Dichloromethane, 20° C.). The solubility in data set [1] (Ethyl acetate, 20° C.) is 50000 to 100000 µg/mL (≈ 99.7 to 199 mM); in data set [1] (Methanol, 20° C.), 6000 to 8000 µg/mL (≈ 12 to 16 mM); in data set [1] (Methanol/water 90:10, 20° C.), 1000 to 2000 µg/mL (≈ 1.99 to 3.99 mM); in data set [1] (Methyl tert-butyl ether, 20° C.), 2000 to 5000 µg/mL (≈ 3.99 to 9.97 mM); in data set [1] (Tetrahydrofuran, 20° C.), more than 100000 µg/mL; in data set [1] (Toluene, 20° C.) it was 10000 to 12000 µg/mL (≈ 19.9 to 23.9 mM). Further, the solubility in data set [1] (i-Propyl acetate, 20° C.) lay within 17000 to 25000 µg/mL (≈ 33.9 to 49.8 mM). In data set [2] (GVS isotherm, 25 °C, 0-90% RH), the “2nd adsorption cycle (0-90% RH), adsorbed water” value came out at 0.135 % w/w. The “1st adsorption cycle (50-90% RH), adsorbed water” value in data set [2] (GVS isotherm, 25 °C, 50-90% RH) was found to be 0.119 % w/w. Also, the “1st desorption cycle (90-0% RH), desorbed water” value in data set [2] (GVS isotherm, 25 °C, 90-0% RH) is given as 0.127 % w/w. For the same compound, the hygroscopic behavior result in data set [2] (GVS, 25 °C) is recorded as “non-hygroscopic”. The weight gain result in data set [2] (from dryness to 90% RH during the second adsorption cycle) is “less than 0.2 % w/w”. Further, in data set [3] (TGA/DSC, heating rate 10° C./min), the thermal stability result is on record as “relatively high thermal stability”. The compound also displayed a TGA weight loss in data set [3] (from ambient to 130° C.) of 0.13 % w/w.
